We go through 1 compound from patent US6337317B1, “Antimicrobial peptides and methods of use thereof” (priority 2000, dated 2002).

In one data set the test system is Human Red Blood Cells. Nature of the data set: Hemolytic assay. The format is cell-based. The protocol:
The toxicity of invention peptides can be assessed using a hemolytic assay in which the ability of the peptides to lyse human red blood cells is assessed (Zhang et al. (1999) Biochemistry 38:8102-8111; and Examples section).
Hemolytic activity of invention peptides was tested against human red blood cells. Freshly collected human blood treated with heparin was centrifuged to remove the buffy coat, and the erythrocytes thereby obtained were washed three times in saline (0.85% NaCl). Serial dilutions of the peptides in saline were prepared in round-bottomed microtiter plates using total volumes of 100 μl. Red blood cells were diluted with saline to 1/25 of a packed cell volume, and 50 μl of cells were added to each well. Plates, while rocking, were incubated at 37° C., and the concentration of the peptide required for lysis after 4 h was taken as the minimal hemolytic concentration.

For data set [1], the system named is E. coli 0111:B4 LPS induced production of TNF-α in RAW macrophages. Kind of data set: Reduction of LPS-induced TNF-α in RAW 264.7 macrophages (ELISA). The format is cell-based, murine. The conditions noted are these: peptide 20 μg/ml; LPS 100 ng/ml; RAW 264.7; 6 hours. The protocol: (§1) The ability of invention peptides to reduce LPS-induced tumor necrosis factor (TNF) production was tested in an in vitro assay. The murine macrophage cell line RAW 264.7 was obtained from American Type Culture Collection (Manassas, Va.) and grown in DMEM medium supplemented with 10% fetal calf serum. The cells were plated at a density of 10^6 cells/well in 24 well plates, incubated overnight, then washed with fresh medium. E. coli 0111 :B4 (100 ng/ml) was added at time 0 to RAW macrophages. Invention peptides […]/m were added at time 0, 30 and 60 minutes and the cells were stimulated for 6 hours. Levels of TNF and interleukin-6 (IL-6) were measured after 6 hours.

Data set [2] has as its system E. coli 0111:B4 LPS induced production of IL-6 in RAW macrophages. Nature of the data set: Reduction of LPS-induced IL-6 in RAW 264.7 macrophages (ELISA). The following applies: peptide 20 μg/ml; LPS 100 ng/ml; RAW 264.7; 6 hours. The class given is cell-based, murine. As to the method:
as §1
(In general: ELISA stands for enzyme-linked immunosorbent assay.)

A further data set deals with P. aeruginosa M2. Kind of data set: P. aeruginosa infection in neutropenic mouse model. The format is in vivo. The following applies: neutropenic CD-1 mice. The protocol: Invention peptides were assayed for their ability to protect against P. aeruginosa infection in a neutropenic mouse mode. Female CD-1 mice, made neutropenic by three injections of cyclophosphamide (see Gough et al., (1996) Infect. Immun. 64:4922-4927) were injected intraperitoneally with a 100% lethal dose of P. aeruginosa M2 (approximately 200 organisms). Thirty minutes later, mice were injected intraperitoneally with invention peptides (200 μg/100 μl) Survival was assessed 24 to 72 hours later.

A short description of data set [3]: LPS-induced endotoxemia in galactosamine-sensitized mice. The class given is in vivo. The conditions noted are these: 200 μg peptide intraperitoneally, groups of 10 mice, up to 24 h. The protocol:
Bacterial endotoxin (LPS) is highly toxic and can cause high mortality in both humans and animals when released during Gram-negative bacterial infection. Galactosamine-treated mice exposed to moderate does of endotoxin typically die from endotoxic shock within 17 hours following exposure. Invention peptides can be tested for their ability to protect mice against endotoxin-induced death (see Examples section). The anti-endotoxic activity of invention peptides also can be tested in an in vitro assay using a macrophage cell line (Gough et al. (1996) Infect. Immun. 64:4922-4927; and Examples section).
The ability of invention peptides to protect against LPS-induced endotoxemia was assessed in vivo. Mice (8-10 weeks old) were injected intraperitoneally with […] D-galactosamine (Dgal) to sensitize them to LPS according to the method of Galanos (Galanos et al. (1979) Proc. Natl. Acad. Sci., USA, 76:5939-5943). Endotoxic shock was induces by intraperitoneal injections of 3 μg/mL E. coli 111 :B4 LPS in phosphate-buffered saline (PBS). Invention peptides (200 μg/100 μl sterile water) were injected intraperitoneally at a separate site within 10 min of LPS injection, and survival was monitored up to 24 h following injection.

Data set [4] can be described thus: Dansyl polymyxin B displacement assay (binding affinity for LPS). More on the design: species or system Escherichia coli. As to the method: To determine whether invention peptides are able to interact with the LPS of Gram-negative bacterial outer membrane, the binding affinity of peptide for LPS was determined using a dansyl polymyxin B displacement assay (Moore et al. (1986) Antimicrobial Agents Chemother. 29:496-500). The assay uses dansyl polymyxin, a cationic probe that is highly fluorescent only when bound and LPS isolated from E. coli. UB1005. […] Maximal displacement of LPS was expressed as a percentage where 100% displacement of dansyl polymyxin B was taken as that observed with polymyxin B.

The structures appear in SMILES notation. Where a SMILES comes first, the peptide text is derived from it.

Take `CC(C)[C@@H]1NC(=O)[C@H](CCCNC(=N)N)NC(=O)[C@H](Cc2ccccc2)NC(=O)[C@@H](NC(=O)[C@H](Cc2c[nH]c3ccccc23)NC(=O)[C@H](CCCNC(=N)N)NC(=O)[C@@H](N)CCCNC(=N)N)CSSC[C@@H](C(=O)N[C@@H](CCCNC(=N)N)C(N)=O)NC(=O)[C@H](CCCCN)NC(=O)[C@H](CCCNC(=N)N)NC(=O)[C@H](Cc2ccc(O)cc2)NC(=O)[C@@H]2CSSC[C@H](NC1=O)C(=O)N[C@@H](Cc1ccc(O)cc1)C(=O)N[C@@H](CCCNC(=N)N)C(=O)NCC(=O)N[C@@H](Cc1ccccc1)C(=O)N2` [Polyphemusin I] (HELM PEPTIDE1{R.R.W.C.F.R.V.C.Y.R.G.F.C.Y.R.K.C.R.[am]}$PEPTIDE1,PEPTIDE1,4:R3-17:R3|PEPTIDE1,PEPTIDE1,8:R3-13:R3$$$V2.0; N-terminus and C-terminus assumed): the “minimal hemolytic concentration (printed under MIC head)” value with Human Red Blood Cells (Human Red Blood Cells, lysis after 4 h at 37° C.) amounted to 21.3 µg/mL. For the same compound, the “hemolytic activity” value in the data set with Human Red Blood Cells (red blood cells) is “show hemolytic activity”. In data set [1], the “Inhibition of TNF-α (%)” value turned out to be 83 ± 6%. In addition, in data set [2], the “Inhibition of IL-6 (%)” value came out at 84 ± 3%. Besides, the “Mean Time to Death” value in the data set with P. aeruginosa M2 (200 μg peptide intraperitoneally 30 min after infection) turned out to be 52 h. In addition, the “Survival (%), P. aeruginosa infection” value in the data set with P. aeruginosa M2 (200 μg peptide intraperitoneally, groups of 5 mice, assessed 24 to 72 hours) worked out at 20%. In data set [3], the “Survival (%), LPS-Endotoxemia” value is on record as 10%. Moreover, the Imax in data set [4] (maximal displacement, 100% = that observed with polymyxin B) is 85%. Moreover, the IC50 in data set [4] (peptide concentration reducing bound dansyl polymyxin B (10 μM) by 50% of maximal displacement, read-out: I50) came out at 4.8 µM.
